Here are results for three compounds from PMC11373198, “In vitro efficacy of next-generation dihydrotriazines and biguanides against babesiosis and malaria parasites” (Antimicrobial Agents and Chemotherapy, 2024).

In data set [1] the target is T1, B. microti DHFR-TS (Babesia microti, UniProt A0A1R4AAV1). More on the design: method as in PMID 37055610. As to conditions: recent studies; cited from earlier work.
The next data set deals with B. duncani. More on the design: method as in PMID 37055610. As to conditions: previous studies; read-out: IC50 against B. duncani; cited from earlier work.
Data set [2] addresses T2, B. duncani DHFR-TS (Babesia duncani, UniProt A0AAD9UQZ8). Also noted: method as in PMID 37055610. As to conditions: recent studies; cited from earlier work.
The conditions of data set [3]: in vivo; cited from earlier work.
The test system of data set [4] is human cell lines (HepG2, HCT-116, HEK-293, and HeLa). Kind of data set: Cytotoxicity on human cell lines, average / overall, and therapeutic index. The class given is cell-based. As to conditions: up to 900 µM, HCT-116, HepG2, HEK-293.
Another data set has as its system B. microti (LabS1). Put plainly: In vivo efficacy in SCID mouse model of B. microti infection. Also noted: species or system CB17/SCID mice. Here is the method: Building on the promising efficacy of JPC-2056 against B. duncani parasites in vivo, we extended our investigation to assess the efficacy of this compound against B. microti (ATCC LabS1) in the SCID (severely combined immunodeficient) mouse model of infection following inoculation with a 1 × 10^4 infected erythrocytes.
(§1) Both C3H/HeJ and CB17/SCID mice aged 5–6 weeks (4 to 5 mice per group in each of the studies described herein) were injected intravenously with (1 × 10^4 iRBCs) of B duncani (WA-1) and B. microti (LabS1) parasites, respectively. The infected mice were treated by oral gavage over 10 days (DPI −1 to 10). During the treatment, each mouse received 100 µL of either vehicle (PEG-400) or prodrug JPC-2056 (30 mg/kg). Percent parasitemia was determined by counting at least 3,000 RBCs from Giemsa-stained […] blood smears.

In data set [5] the test system is B. duncani (WA-1). Kind of data set: In vitro growth inhibition of B. duncani in human erythrocytes (SYBR Green-I). The class given is cell-based, Babesia duncani. As to conditions: continuous in vitro culture in human erythrocytes, read-out: IC50 B. duncani.
The subject of the next data set is HepG2. Put plainly: Cytotoxicity on human cell line (MTT). The format is cell-based. As to conditions: 72 h. Here is the method:
(§2) HeLa, HepG2, HEK293, and HCT116 cell lines were obtained from the American Type Culture Collection (ATCC) and maintained in Dulbecco’s modified Eagle’s medium (DMEM) (Invitrogen 11995–065) containing 25 mM glucose, 1 mM sodium pyruvate, and supplemented with 5 mM HEPES, 10% FBS, and penicillin-streptomycin (50 U/mL penicillin, 50 µg/mL streptomycin). Cells were seeded in a 96-well tissue culture plate (20,000 cells per well) and allowed to adhere for 24 hours, after which they were treated with a 12-step 2-fold serial dilution of each drug starting at 1 mM as the highest final concentration. Cells maintained in the medium supplemented with either 0.1% or 10% DMSO were used as negative and positive vehicle controls, respectively. The plates were incubated at 37 °C for 72 h, after which each well was incubated with 0.5 mg/mL of MTT reagent (MP Chemicals #02102227) for 4 h in the dark at 37 °C. The formazan crystals formed by living cells were solubilized with the addition of 100 µL of DMSO to each well. We measured the OD590nm using a SpectraMax plate reader. From the obtained OD values, percent cell viability was estimated by normalizing to the mean of 10% DMSO wells (set as 100% toxicity) and mean of the vehicle control wells (set as 0% toxicity). Dose-response curves were plotted using GraphPad Prism version 9.1.2.

Another data set has as its system HEK293. Kind of data set: Cytotoxicity on human cell line (MTT). The format is cell-based. As to conditions: 72 h. On the procedure:
as §2

A further data set concerns HeLa. Kind of data set: Cytotoxicity on human cell line (MTT). The class given is cell-based. As to conditions: 72 h. Here is the method: as §2
The subject of the next data set is HCT116. Put plainly: Cytotoxicity on human cell line (MTT). The class given is cell-based. As to conditions: HCT-116, 72 h. On the procedure:
as §2

Data set [6] addresses T2, B. duncani DHFR-TS. Put plainly: Enzyme inhibition assay: DHFR activity of purified DHFR-TS. The format is biochemical. Here is the method: (§3) The inhibition of DHFR activity with selected JPC derivatives was measured as previously described ([59]). Briefly, the purified enzyme (0.1 µM) (supporting information) (Fig. S7) was incubated with increasing concentrations of JPC-2067 or JPC-2056 in a reaction buffer containing 300 µM DHF and 300 µM NADPH. OD340 reduction rate (OD340/min) was measured for further calculation. The % inhibition was calculated using the formula:
(§4) =1−((OD340/min)sample−(OD340/min)negative control)/((OD340/min)positive control−(OD340/min)negative control)
(§5) The IC50 was determined from a sigmoidal dose-response curve using GraphPad Prism version 9.1.2.
(§6) Dihydrofolate reductase-thymidylate synthase (DHFR-TS) gene from B. duncani (BdDHFR-TS BdWA1_001462) and B. microti (BmDHFR-TS BMR1_02g03680) were cloned into pMAL-c4x by GenScript USA Inc. Both enzymes were expressed as fusion proteins with N’-terminal maltose binding protein (MBP) tag. Constructs of pMAL-c4x-BdDHFR-TS and pMAL-c4x-BmDHFR-TS were transformed by heat shock into E. coli BL-21(DE3). E. coli BL-21(DE3) harboring pMAL-c4x-DHFR-TS was grown overnight in 2 ml LB ampicillin (100 µg/mL). Cultures were diluted 100-fold in fresh LB medium with 0.2% glucose and grown to A600 of ~0.5 at 37°C. DHFR-TS expression was induced by the addition of 0.5 mM isopropyl thiogalactoside (IPTG) followed by growth for overnight at 16°C or at room temperature (RT). The cells were harvested by centrifugation (8,000 × g × 10 min, 4°C), washed by resuspension in water, and re-centrifuged. Cells were used directly for purification or kept frozen at -20°C. Prior to enzyme purification, cells were re-suspended in binding buffer containing 25 mM Tris-HCl pH 8, 500 mM NaCl, 0.5% glycerol, and 50mM L-arginine. Cells were supplemented benzonase DNAse (250U/µl) and 3-((3-cholamidopropyl) dimethylammonio)-1-propanesulfonate (CHAPS) (0.002%) and were disrupted by sonication on ice using Omni Sonic Ruptor 400 Ultrasonic Homogenizer (15-sec burst at 70% amplitude, 3 times, with 30-sec cooling intervals). A soluble supernatant was prepared by centrifugation (16,000 × g × 20 min) of the cells sonicate.
(§7) Recombinant DHFR-TSs were purified from the clear cell extract supernatant using amylose resin (NEB), methotrexate-agarose beads, and in some cases size exclusion chromatography (SEC). Briefly, soluble supernatant was incubated with amylose beads in binding buffer with gentle agitation for 1h at 4°C. Following enzyme adsorption, the affinity matrix was transferred to a column and unbound proteins were removed by washing with binding buffer. Purified enzymes were eluted with elution buffer containing 10 mM maltose. Amylose elution fractions were loaded onto MTX-agarose resin and purified DHFR-TS enzymes were eluted using 2 mM dihydrofolic acid (DHF). […]

In data set [7] the target is T1, B. microti DHFR-TS. The data set is described as above. The format is biochemical. Here is the method:
as §3, §4, §5, §6, §7

Data set [8] has as its system B. duncani (WA-1). Kind of data set: In vivo efficacy in mouse model of lethal B. duncani infection. More on the design: species or system C3H/HeJ mice. Here is the method:
The finding that JPC-2067 is effective against B. duncani in vitro led us to investigate the activity of its prodrug JPC-2056 in the mouse model of lethal infection (C3H/HeJ mice) ([57]). […] To evaluate the efficacy of JPC-2056, two groups of 5 female mice each were infected with 1 × 10^4 B. duncani-infected erythrocytes and at day 1 post-infection (DPI-1) received either a vehicle (PEG-400) or 30 mg/kg of JPC-2056 administered orally once a day for 10 days. […] However, parasitemia in these mice continued to increase over time reaching peak levels at DPI-12 (Fig. 3A and B). These animals succumbed to lethal B. duncani infection at DPI-13 (Fig. 3A and C).
as §1

Setting [9] is: 30 mg/kg orally once a day for 10 days.
[10] abbreviates: 0.1 µM enzyme, 300 µM DHF, 300 µM NADPH.

Entries after “also recorded” stand apart in the source; their conditions may differ. Like-named read-outs stand apart in the source and are kept apart here.

T2 sequence (A0AAD9UQZ8 entry or part of it): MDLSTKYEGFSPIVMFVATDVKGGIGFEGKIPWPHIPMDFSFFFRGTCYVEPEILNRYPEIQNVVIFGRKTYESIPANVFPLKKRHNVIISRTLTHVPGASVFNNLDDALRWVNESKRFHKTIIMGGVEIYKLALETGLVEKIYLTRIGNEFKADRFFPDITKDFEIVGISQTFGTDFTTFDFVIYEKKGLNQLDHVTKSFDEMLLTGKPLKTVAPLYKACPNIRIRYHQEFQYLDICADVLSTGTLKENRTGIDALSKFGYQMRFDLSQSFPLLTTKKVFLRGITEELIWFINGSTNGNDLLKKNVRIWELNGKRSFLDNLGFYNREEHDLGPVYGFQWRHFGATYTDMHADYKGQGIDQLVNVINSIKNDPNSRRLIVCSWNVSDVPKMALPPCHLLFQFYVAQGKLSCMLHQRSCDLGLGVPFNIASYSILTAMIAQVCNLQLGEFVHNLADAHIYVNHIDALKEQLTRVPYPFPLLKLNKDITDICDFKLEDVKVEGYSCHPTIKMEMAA
T1 sequence (A0A1R4AAV1 entry or part of it): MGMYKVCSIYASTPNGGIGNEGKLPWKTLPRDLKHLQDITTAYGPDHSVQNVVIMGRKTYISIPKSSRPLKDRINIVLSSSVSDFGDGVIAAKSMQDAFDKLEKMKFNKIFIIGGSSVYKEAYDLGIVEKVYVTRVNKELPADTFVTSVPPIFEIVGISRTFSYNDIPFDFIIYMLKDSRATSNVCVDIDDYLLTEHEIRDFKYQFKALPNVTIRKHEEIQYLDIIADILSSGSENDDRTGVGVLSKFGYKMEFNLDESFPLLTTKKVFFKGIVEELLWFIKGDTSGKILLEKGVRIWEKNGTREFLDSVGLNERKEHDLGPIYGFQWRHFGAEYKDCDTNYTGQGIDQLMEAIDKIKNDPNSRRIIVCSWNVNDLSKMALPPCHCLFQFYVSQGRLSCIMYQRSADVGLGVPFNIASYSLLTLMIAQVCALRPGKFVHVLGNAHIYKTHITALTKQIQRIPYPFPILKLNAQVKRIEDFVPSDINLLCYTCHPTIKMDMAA

On to `CC1(C)N=C(N)N=C(N)N1OCCCOc1cc(Cl)c(Cl)cc1Cl` [WR99210], for which the “inhibition of B. microti DHFR-TS activity” value at B. microti DHFR-TS [1] is on record as “inhibits the activity”. Also, the IC50 (commonly the concentration at which inhibition is half-maximal) in the data set on B. duncani is 0.0005 µM. The “inhibition of B. duncani DHFR-TS activity” value on B. duncani DHFR-TS [2] is “inhibits the activity”. In [3], the bioavailability entry is recorded as “poor bioavailability” and the gastrointestinal tolerability entry is listed as “caused gastrointestinal complications”.

Regarding `CC(C)NC(=N)NC(=N)NOCCCOc1ccc(OC(F)(F)F)cc1Cl` [JPC-2056], the “cytotoxicity (effect on human cell lines)” value in data set [4] is on record as “no discernible effect”. Also, the adverse effects entry in the data set with B. microti (LabS1) (30 mg/kg once a day for 10 days) was “without observable adverse effects”. In the data set on B. microti (LabS1) (30 mg/kg once a day for 10 days (DPI-1 to 10)), the “outcome of B. microti infection” value is “clearance of infection with no parasites detected up to DPI-45; also recorded: elimination of parasites”. Besides, the IC50 with B. duncani (WA-1) [5] (Babesia duncani, Erythrocyte) was 0.8694 ± 0.004 µM; with B. duncani (WA-1) [5], 0.869 µM; in the data set with HepG2 it was 1000 µM; in the data set with HEK293 it was 1000 µM; in the data set with HeLa, above 900 µM; with HCT116 it was 1000 µM. Further, the “inhibitory activity against B. duncani DHFR-TS” value against B. duncani DHFR-TS [6] (Fig. S3A) was “no discernible inhibitory activity”. For the same compound, the “inhibitory activity against B. microti DHFR-TS” value against B. microti DHFR-TS [7] (Fig. S3B) was “no discernible inhibitory activity”. Moreover, the “day animals succumbed to lethal infection” value in the data set with B. duncani (WA-1) [8] (setting [9]) is given as 13 DPI. Besides, in the data set on B. duncani (WA-1) [8] (setting [9]), the parasite emergence result is on record as “delay in parasite emergence”. In addition, the “parasitemia compared to vehicle-treated mice” value in the data set on B. duncani (WA-1) [8] (30 mg/kg orally once a day for 10 days (DPI-1 to 10)) is “reduced peak parasitemia”.

Take `CC1(C)NC(=N)NC(=N)N1OCCCOc1ccc(OC(F)(F)F)cc1Cl` [JPC-2067]: the “cytotoxicity (effect on human cell lines)” value in data set [4] is “no discernible effect”. Besides, the IC50 in the data set on B. duncani (WA-1) [5] (Babesia duncani, Erythrocyte) was 0.0089 ± 0.002 µM; with B. duncani (WA-1) [5], 0.00893 µM; with HepG2, 1150 µM; in the data set on HEK293, 1000 µM; in the data set on HeLa, above 900 µM; in the data set on HCT116 it was 1000 µM. The EC50 – broadly, the concentration that produces a half-maximal response – was found to be 0.001 µM at B. duncani DHFR-TS [6] (setting [10]) and 0.0147 µM at B. microti DHFR-TS [7] (setting [10]).
